Results on four molecules are retold here after US20200131144A1, “AMINE OR (THIO)AMIDE CONTAINING LXR MODULATORS” (Phenex-FXR GmbH, priority 2017, published 2020).

The assay has as its target T1, LXRα ligand-binding domain (LBD) (Homo sapiens, UniProt Q13133).
T1 construct: expressed in transfected cells; host or cells: HEK293
T1 sequence (Q13133 155-447): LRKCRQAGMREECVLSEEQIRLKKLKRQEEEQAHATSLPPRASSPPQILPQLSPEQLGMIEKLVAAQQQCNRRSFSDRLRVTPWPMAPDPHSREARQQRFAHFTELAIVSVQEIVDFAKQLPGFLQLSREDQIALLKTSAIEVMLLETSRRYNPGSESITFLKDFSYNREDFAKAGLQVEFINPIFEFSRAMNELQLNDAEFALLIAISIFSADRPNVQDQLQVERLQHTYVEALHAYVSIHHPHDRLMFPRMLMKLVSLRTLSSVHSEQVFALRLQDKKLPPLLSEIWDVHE
Briefly: LXR Gal4 reporter transient transfection assay, mammalian two-hybrid, LBD-M2H Gal4α. In kind it is cell-based. The following applies: HEK293 cells; inverse agonist unless *. Summed up: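 Mammalian two-hybrid read-out: interaction of LXRα or LXRβ (full length or ligand-binding domain, NFkB activation-domain fusions) with GAL4-fused SRC1 or NCoR domains drives GAL4-responsive firefly luciferase in HEK293 cells, normalised by Renilla cotransfection. Compounds given 4 h after transfection, ≤0.2% vehicle, cells lysed after 16 h.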

Broadly, the EC50 is the concentration that produces a half-maximal response. Lower therefore signals greater potency. In turn, `Cc1cc(C)c(C(=O)N(Cc2ccc(-c3cccc(C(C)(C)C(=O)O)c3)cc2)Cc2ccc(C(F)(F)F)o2)c(C)c1` [10/1] displayed an EC50 of 100 to 1000 nM.
Regarding `Cc1ccc2ccccc2c1C(=O)N(Cc1ccc(-c2cc(F)c(CO)c(S(=O)(=O)CC(=O)O)c2)cc1)Cc1ccc(C(F)(F)F)o1` [22/8], the EC50 is < 100 nM.
Then `Cc1ccc2ccccc2c1C(=O)N(Cc1ccc(-c2cccc(S(=O)(=O)CC(=O)O)c2)cc1)Cc1ccc(C(F)(F)F)o1` [Example 9], with 100 to 1000 nM; and `Cc1ccc2ccccc2c1CN(Cc1ccc(-c2cccc(C(C)(C)C(=O)O)c2)cc1)Cc1ccc(C(F)(F)F)o1` [Example 24, 2-Methyl-2-(4′-((((2-methylnaphthalen-1-yl)methyl)((5-(trifluoromethyl)furan-2-yl)methyl)amino)methyl)-[1,1′-biphenyl]-3-yl)propanoic acid], with < 100 nM.
